Here are results for two molecules from patent US8754233B2, “Pyrazolylbenzothiazole derivatives and their use as therapeutic agents” (Dermira (Canada), Inc., priority 2002, dated 2014).

Some results are limits rather than exact numbers.

The subject of assay [1] is TNFa on macrophages. Put plainly: Inhibition of TNFα release from stimulated macrophages. Particulars: LPS and IFN-γ stimulated primary macrophages, ELISA. In kind it is cell-based, mouse. As for the experimental part:
Peritoneal exudate macrophages were isolated by peritoneal lavage with ice-cold sterile physiological saline 24 hours after intraperitoneal injection of BALB/c mice with 0.5 mL of sterile Zymosan A (1 mg/0.5 mL 0.9% saline). […] Murine primary macrophage will get activated following incubation with LPS in the presence of sub-optimal doses of IFN-γ. […] TNF-αlevels in the supernatants from stimulated macrophages were determined with PharMingen's OptEIA TNF-α kit (PharMingen). The experiment was performed at room temperature, about 21° C., unless otherwise stated. The microwells (F8 MaxiSorp™ Loose/Nunc-Immuno Module; Gibco/BRL) were coated with 100 μl/well of capture antibody (at the recommended concentration) and incubated overnight at 4° C. […] Next, the solution was removed and the plates were washed 5× with wash buffer. The TNF-αanalysis was initiated by adding duplicate samples (100 μl/well) or standards (100 μl/well) in diluent buffer which were incubated for 2 h. The solution was removed and the plates washed 5× with wash buffer. Enzyme reagent (100 μl) containing biotinylated mouse TNF-αmonoclonal antibody and avidin-horseradish peroxidase conjugate (at concentrations recommended by the manufacturer) was added to each well. The plate was incubated for 1 hour, the solution removed, and the plates washed 7× with wash buffer. […] Colour development was terminated by adding 50 μl of 2N H2SO4. […] Peritoneal exudate macrophages were isolated by peritoneal lavage with ice-cold sterile physiological saline 24 hours after intraperitoneal injection of BALB/c mice with 0.3 ml of sterile zymosan A (1 mg/0.5 mL 0.9% saline). […] All treatments were replicated six times. Cells were incubated for an additional 24 hours, and cell free culture supernatants from each well were collected for NO and cytokine determination. The remaining cells were stained with crystal violet to determine effect of the compound on cell survival.
Background: An ELISA detects its analyte on a solid surface through an enzyme-linked reagent.

Assay [2] concerns MCP1 on HUVECS. The assay is described as follows: Inhibition of MCP-1 release from TNFα-stimulated HUVEC. In kind it is cell-based, human. Particulars: 18-24 hours, ELISA. The source says: The activation of endothelial cells by pro-inflammatory cytokine TNF-α leads to the production of several chemokines. The release of these chemokines play an important role in leukocyte trafficking and extravasation of leukocytes into tissue during inflammation. MCP-1 and IL-8 are among the chemokines released upon stimulation of human endothelial cells (HUVECs) by TNFα, and contribute to migration of monocytes to the sites of inflammation. Cells should not be passaged more than 6 times.
Cells were maintained and grown in tissue culture flasks (T75) in endothelial cell growth medium (EGM, Clonetics) containing 5 additional supplements (EGM-5) in medium [human recombinant endothelial growth factor (hEGF), hydrocortisone (HC), bovine brain extract (BBE), fetal bovine serum (FBS) and Gentamycin (GA)] incubated at 37° C., 5% CO2. The cells should be propagated a maximum of 20 passages.
The plates were incubated overnight at 37° C., 5% CO2 to enable the cells to attach and grow.
The working concentration of TNFα was 1,000 pg/ml. A twenty times working concentration of TNFα was 20,000 pg/ml was prepared using EGM-5. The test compounds, DMSO negative vehicle control and staurosporine positive control were diluted 20× using EGM-5. Ten μL each of the compounds, DMSO and staurosporine were combined with 180 μl of medium containing HUVEC cells. Immediately following the addition of the compounds, 10 μl of […] TNFα was added to the wells. Medium without TNFα was added to the control wells. […] The plates were incubated at 37° C. in 5% CO2 in humidified conditions overnight (18-24 hours) for TNFα.
At the completion of the stimulation, the plates were spun at 2000 rpm for 10 minutes. The supernatants from each well were transferred to fresh plates for MCP1 analysis by ELISA.
[…] were determined with PharMingen's OptEIA™ MCP1 Kit (PharMingen) according to manufacturer's instructions.
The data is represented as a percentage of MCP1 inhibition by the following formula: % MCP1 inhibition=100−(AVG treatment/AVG DMSO control)*100.

In general, IC50 refers to the concentration that gives 50% inhibition. Read a high IC50 as a need for much substance. For `COc1cc2sc(-c3c(N4CCNCC4)n[nH]c3N)nc2cc1F` [4-(5-Fluoro-6-methoxybenzothiazole)-5-piperizin-1-yl-2H-pyrazol-3-ylamine], the IC50 in assay [1] came out at 14.7 µM; in assay [2], 10.9 µM.
For `COc1cc2sc(-c3c(NCCN(C)C)n[nH]c3N)nc2cc1F` [N^3-(2-Dimethylaminoethyl)-4-(5-fluoro-6-methoxybenzothiazole)-1H-pyrazole-3,5-diamine] the same measures were 17.1 µM and greater than 25 µM.
